Measurements reported in patent US20250066318A1, “HETEROCYCLIC COMPOUNDS AS DYRK1A INHIBITORS” (Prothena Biosciences Limited, priority 2021, published 2025).

What follows are compounds tested against DYRK1A (Homo sapiens (Human), UniProt Q13627) (assay: DYRK1A Inhibition Assay). Conditions: Selected Compounds of Formula (I); DYRK1A 1 nM, ATP 20 μM, Ser/Thr 18 peptide 2 μM, 90 minutes; read-out: DYRK1 IC50.
Assay type: biochemical
Description: DYRK1A—Invitrogen #PV4105
Ser/Thr 18 peptide—Invitrogen #PR8227U Phos-Ser/Thr 18 peptide—Invitrogen #PR8229U Assay plate—PerkinElmer #6007279
Development reagent A—Invitrogen #PR5194B Development buffer—Invitrogen #PR4876B
1. Test compounds were diluted to 1 mM in DMSO 2. Stock was further diluted 3-fold using Echo platform 3. 100 nL of DMSO into Columns 1 and 24 and 100 nL of compounds dilutions to Columns 2-23 in a plate.
1. Add 5 μL enzyme & substrate mixture to each well in Column 2-23 and A24-H24 wells of the 384-well assay plate; 2. Add 5 μL 0% Phosphorylation control to A1-H1 and I24-P24 wells of the assay plate; 3. Add 5 μL 100% Phosphorylation control to I1-P1 wells of the assay plate; 4. Spin the assay plate (1000 rpm, 1 minute @23° C.); 5. Incubate enzyme with compounds for 15 minutes at 23° C.; 6. Add 5 μL ATP solution to each well of the assay plate; 7. Spin the plate (1000 rpm, 1 minute @23° C.); 8. Incubate the assay plate for 90 minutes at 23° C.; 9. Add 10 μL Development reagent A to each well of the assay plate; 10. Centrifuge the plate at 1000 rpm about 15 seconds and seal a film over assay plate. Incubate the assay plate for 30 minutes at 23° C. 11. Read assay plates on Envision (see Tables A, B, and C).
Final Compound Concentrations
Assay buffer: 50 mM Hepes pH7.5, 10 mM MgCl2, 1 mM EDTA, 0.01% Brij-35
Ser/Thr 18 peptide: 2 μM Reaction time: 90 minutes

| IC50 [nM] | Structure (SMILES) |
| --- | --- |
| > 1000 | CC(C)(O)C#Cc1ncc(-c2ccc3cncc(CN4CCC(C(=O)O)CC4)c3c2)s1 [Compound 109] |
| ≤ 10 | CN1CC(OC(=O)Nc2cc3cc(-c4cnn(C)c4)ccc3cn2)C1 [Compound 84] |
| 100 to 1000 | O=C(O)C1CCN(Cc2cncc3ccc(-c4cnc(C#CC5CCOCC5)s4)cc23)CC1 [Compound 91] |
| ≤ 10 | O=C(O)[C@H]1C[C@H](Nc2ncc(-c3ccc4cnccc4c3)s2)C1 [Compound 72] |
